The numbers were not newly measured in patent EP2561868A1 (Van Oosten, Anton Bernhard, priority 2011, dated 2013), which cites them from elsewhere.

SMILES strings stand for the structures. Entries after “also recorded” stand apart in the source; their conditions may differ.

Assay in data set [1]: not given
This is another data set of the same source.

In a further data set the test system is serum immunoglobulin. The conditions noted are these: patient Z.
In the next data set the test system is bone marrow plasma cell. As to conditions: patient Z.
For data set [2], the system named is multiple myeloma and MGUS. As to conditions: patients with multiple myeloma and MGUS.
A further data set concerns the target human CYP3A4 (Homo sapiens, UniProt P08684).
In the next data set the target is P-glycoprotein (Homo sapiens, UniProt P08183).
Chain of P-glycoprotein (P08183 whole entry): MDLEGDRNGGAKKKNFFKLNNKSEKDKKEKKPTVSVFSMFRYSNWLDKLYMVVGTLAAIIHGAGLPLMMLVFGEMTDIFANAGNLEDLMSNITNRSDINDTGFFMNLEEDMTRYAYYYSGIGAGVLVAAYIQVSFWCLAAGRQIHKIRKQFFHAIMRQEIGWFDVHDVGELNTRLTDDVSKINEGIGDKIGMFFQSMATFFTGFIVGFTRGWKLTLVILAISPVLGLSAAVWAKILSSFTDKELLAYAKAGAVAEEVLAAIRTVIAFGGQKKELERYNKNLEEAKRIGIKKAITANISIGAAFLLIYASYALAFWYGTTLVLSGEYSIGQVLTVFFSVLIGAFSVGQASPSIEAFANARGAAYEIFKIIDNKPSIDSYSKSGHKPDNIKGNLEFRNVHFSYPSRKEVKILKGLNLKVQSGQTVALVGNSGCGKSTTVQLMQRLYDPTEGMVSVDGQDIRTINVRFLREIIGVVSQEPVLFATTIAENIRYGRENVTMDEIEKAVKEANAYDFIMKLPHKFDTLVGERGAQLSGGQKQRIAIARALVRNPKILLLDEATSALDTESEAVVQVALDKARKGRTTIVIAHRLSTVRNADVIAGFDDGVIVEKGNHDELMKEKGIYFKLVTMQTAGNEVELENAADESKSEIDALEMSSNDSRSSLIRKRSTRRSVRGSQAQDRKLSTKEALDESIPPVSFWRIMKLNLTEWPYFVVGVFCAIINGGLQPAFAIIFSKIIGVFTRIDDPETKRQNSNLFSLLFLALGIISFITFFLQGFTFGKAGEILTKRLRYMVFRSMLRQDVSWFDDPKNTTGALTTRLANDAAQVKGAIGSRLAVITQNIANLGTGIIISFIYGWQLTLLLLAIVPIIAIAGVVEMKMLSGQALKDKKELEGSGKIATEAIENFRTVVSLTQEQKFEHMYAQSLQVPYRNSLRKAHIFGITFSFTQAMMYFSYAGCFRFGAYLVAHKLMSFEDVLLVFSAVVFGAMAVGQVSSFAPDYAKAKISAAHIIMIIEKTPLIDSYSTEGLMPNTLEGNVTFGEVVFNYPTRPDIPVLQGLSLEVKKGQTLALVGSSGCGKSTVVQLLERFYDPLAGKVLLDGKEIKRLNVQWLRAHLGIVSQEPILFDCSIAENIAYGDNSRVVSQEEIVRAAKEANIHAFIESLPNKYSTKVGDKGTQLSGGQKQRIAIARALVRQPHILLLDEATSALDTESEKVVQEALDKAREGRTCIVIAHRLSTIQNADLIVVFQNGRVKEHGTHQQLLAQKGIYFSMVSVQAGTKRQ
[3] abbreviates: curcumin 8000 - 14,000 mg, no HCQ.

Chain of human CYP3A4 (P08684 whole entry): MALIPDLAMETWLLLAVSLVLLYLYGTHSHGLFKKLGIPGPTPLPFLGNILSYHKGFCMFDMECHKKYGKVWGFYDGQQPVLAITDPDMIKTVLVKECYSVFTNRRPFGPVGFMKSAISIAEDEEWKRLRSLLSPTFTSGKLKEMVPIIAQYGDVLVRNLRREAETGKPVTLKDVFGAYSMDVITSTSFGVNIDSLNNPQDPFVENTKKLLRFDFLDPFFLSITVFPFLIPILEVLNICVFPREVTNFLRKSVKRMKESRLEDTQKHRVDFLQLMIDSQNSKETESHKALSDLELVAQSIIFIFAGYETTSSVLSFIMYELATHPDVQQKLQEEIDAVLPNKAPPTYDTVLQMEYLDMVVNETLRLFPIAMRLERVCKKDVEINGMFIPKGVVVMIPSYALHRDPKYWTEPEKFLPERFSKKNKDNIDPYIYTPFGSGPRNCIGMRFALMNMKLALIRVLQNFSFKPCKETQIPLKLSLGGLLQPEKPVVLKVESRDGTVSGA

`CCN(CCO)CCCC(C)Nc1ccnc2cc(Cl)ccc12.O=S(=O)(O)O` (centres unmarked) [Hydroxychloroquine, 2-[[4-[(7-Chloro-4-quinolyl)amino]pentyl]ethylamino] ethanol sulfate (1:1)]: under “after 5 to 7 years of use, or a cumulative dose of 1000 g”, the risk of toxicity is roughly 1%. Further, under “non-obese person (Marmor M et al., 2002)”, the dose considered safe is 6.5 mg/kg/day. Also, the soluble in water entry in data set [1] is listed as “at least 20%”.

As for `O=C1CC[C@@]2(O)[C@H]3Cc4ccc(O)c5c4[C@@]2(CCN3CC2CC2)[C@H]1O5` [LDN], in the data set with serum immunoglobulin (serum, 12/26/07, LDN, diet), the IgG is given as 30.0 g/L and the M-IgG is given as 20.5 g/L.

Take `COc1cc(/C=C/C(=O)CC(=O)/C=C/c2ccc(O)c(OC)c2)ccc1O` [curcumin]: the “m-spike / M-IgG serum concentration, response to treatment” value with serum immunoglobulin (setting [3]) is “did not react to treatment”. Further, in the data set with bone marrow plasma cell (8000 mg to 14,000 mg daily, June 27 to December 26, 2007), the clinical benefit result is “without any clear benefit”. In the data set on bone marrow plasma cell (setting [3]), the “BMPC values / progression” value was “did not prevent progression or cause a downward evolution of the BMPC nor the m-spike; also recorded: No clear benefit”. The objective responses result in data set [2] was “no objective responses”.

On to `O=C(/C=C/C=C/c1ccc2c(c1)OCO2)N1CCCCC1` [piperine], for which the “inhibition of human CYP3A4” value on human CYP3A4 is “inhibit”. At P-glycoprotein, the “inhibition of P-glycoprotein” value was “inhibit”.
